The results in this text go back to the Kinase Knowledgebase extract (Sharma et al. 2016).

pIC50: −log10 of the molar value.

For one test, the target named is EGFR (human) (UniProt P00533). The following applies: a431.
The target in the next test is EGFR (UniProt P00533).
Chain of EGFR (P00533 whole entry, looked up): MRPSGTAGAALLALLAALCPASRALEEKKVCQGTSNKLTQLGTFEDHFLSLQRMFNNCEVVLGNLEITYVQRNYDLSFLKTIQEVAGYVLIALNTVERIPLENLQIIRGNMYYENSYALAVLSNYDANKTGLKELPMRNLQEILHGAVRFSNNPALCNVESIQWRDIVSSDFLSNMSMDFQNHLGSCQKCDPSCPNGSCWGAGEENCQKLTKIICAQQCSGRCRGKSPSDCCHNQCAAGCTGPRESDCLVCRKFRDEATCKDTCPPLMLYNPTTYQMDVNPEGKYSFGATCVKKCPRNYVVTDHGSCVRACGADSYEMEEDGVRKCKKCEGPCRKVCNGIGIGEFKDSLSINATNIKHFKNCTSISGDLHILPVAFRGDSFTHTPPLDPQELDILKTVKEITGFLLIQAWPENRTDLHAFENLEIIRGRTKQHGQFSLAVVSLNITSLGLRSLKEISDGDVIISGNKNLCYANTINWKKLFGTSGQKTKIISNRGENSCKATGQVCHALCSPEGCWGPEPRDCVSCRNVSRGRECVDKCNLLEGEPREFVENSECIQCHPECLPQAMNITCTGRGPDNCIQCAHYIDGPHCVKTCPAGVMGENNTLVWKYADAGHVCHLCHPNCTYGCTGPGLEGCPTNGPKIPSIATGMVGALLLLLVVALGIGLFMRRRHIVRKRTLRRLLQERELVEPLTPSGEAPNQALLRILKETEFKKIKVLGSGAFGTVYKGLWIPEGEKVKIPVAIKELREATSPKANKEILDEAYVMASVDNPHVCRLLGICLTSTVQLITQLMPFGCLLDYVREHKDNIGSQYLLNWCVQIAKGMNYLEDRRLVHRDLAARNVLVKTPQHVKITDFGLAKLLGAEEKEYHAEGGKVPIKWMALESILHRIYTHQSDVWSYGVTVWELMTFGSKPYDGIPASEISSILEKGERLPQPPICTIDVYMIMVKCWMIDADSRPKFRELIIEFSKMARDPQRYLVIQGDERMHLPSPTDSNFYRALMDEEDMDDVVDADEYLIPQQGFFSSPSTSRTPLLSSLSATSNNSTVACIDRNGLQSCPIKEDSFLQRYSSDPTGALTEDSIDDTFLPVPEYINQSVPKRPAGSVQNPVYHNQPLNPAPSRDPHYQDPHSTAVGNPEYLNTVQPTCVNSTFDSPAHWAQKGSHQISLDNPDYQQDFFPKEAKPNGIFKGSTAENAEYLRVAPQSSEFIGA

Chain of EGFR (human) (P00533 whole entry, looked up): as above

Turning to `COc1cc2nccc(Oc3ccccc3OC)c2cc1OC`, the pIC50 (in general, −log10 of the IC50, conventionally taken in molar units) against EGFR (human) is 4.04. `COc1cc2nccc(Oc3ccc(NC(=O)c4ccc(C(C)=O)cc4)cc3)c2cc1OC` gave a pIC50 on EGFR (human) below 4.00.

Compound `COc1cc2nccc(Oc3cccc(N)c3)c2cc1OC` showed a pIC50 against EGFR (human) of 4.40.

At EGFR (human), `COc1cc(OC)cc(Oc2ccnc3cc(OC)c(OC)cc23)c1` showed a negative logarithm of the IC50 (pIC50) of 4.31. At EGFR (human), `COc1cc2nccc(Oc3ccc(C(=O)c4cccc(C)c4)cc3)c2cc1OC` gave a pIC50 of 4.02.

For `COc1cc2nccc(Oc3ccc(N)cc3)c2cc1OC`, at EGFR (human), the pIC50 was below 4.00. Still for that read-out and setting: the value for `COc1cc2nccc(Oc3ccccc3C(=O)c3ccccc3)c2cc1OC` was 4.85; that for `CCCCc1ccc(C(=O)c2ccc(Oc3ccnc4cc(OC)c(OC)cc34)cc2)cc1` was below 4.00; that for `COc1cc2nccc(Oc3ccc(C(=O)c4ccccc4C)cc3)c2cc1OC` was 4.37. The same measure, in the same setting: with `COc1cc2nccc(Oc3ccc(C(=O)c4ccco4)cc3)c2cc1OC` the figure was below 4.00; with `COc1cc2nccc(Oc3ccc(Br)cc3)c2cc1OC`, 4.70; with `COc1cc2nccc(Oc3ccccc3N)c2cc1OC`, above 5.00. As for `COc1cc2nccc(Oc3ccc(C(=O)c4ccccc4C(F)(F)F)cc3)c2cc1OC`, the negative logarithm of the IC50 (pIC50) against EGFR (human) is 4.68. The same measure, in the same setting: with `COc1cc2nccc(Oc3ccc(C(=O)c4ccc(OC(F)(F)F)cc4)cc3)c2cc1OC` the figure was below 4.00; with `COc1ccc(Oc2ccnc3cc(OC)c(OC)cc23)cc1`, 4.36.

For the compound `COc1cc2nccc(Oc3ccc(C(=O)c4ccc(Cl)c(Cl)c4)cc3)c2cc1OC`, the pIC50 against EGFR (human) is 4.51.

Consider `COc1cc2nccc(Oc3ccc(NC(=O)c4ccc(C(F)(F)F)cc4)cc3)c2cc1OC`, for which the negative logarithm of the IC50 (pIC50) against EGFR (human) was 4.03.

Regarding `COc1cc2nccc(Oc3ccc(C(=O)c4cccc(F)c4)cc3)c2cc1OC`, at EGFR (human), the negative logarithm of the IC50 (pIC50) is 4.55. `COc1cc2nccc(Oc3ccc(NC(=O)c4ccco4)cc3)c2cc1OC`: the pIC50 on EGFR (human) is below 4.00. In the case of `COc1cc2nccc(Oc3ccc(C(=O)c4cccc(C(F)(F)F)c4)cc3)c2cc1OC`, at EGFR (human), the pIC50 is below 4.00.

`COc1cc2nccc(Oc3ccc(C(=O)c4ccc(C)cc4)cc3)c2cc1OC` had a pIC50 on EGFR (human) below 4.00. The same measure, in the same setting: the value for `COc1cc2nccc(Oc3cccc(NC(=O)c4ccc(C(C)(C)C)cc4)c3)c2cc1OC` was 6.19.

Turning to `COc1cc2nccc(Oc3ccc(NC(=O)C4CCCC4)cc3)c2cc1OC`, on EGFR (human), the pIC50 was below 4.00.

On to `COc1cc2nccc(Oc3ccc(N(C)C(=O)c4ccc(C(C)(C)C)cc4)cc3)c2cc1OC`, for which, at EGFR (human), the pIC50 was 5.22. Turning to `COc1cc2nccc(Oc3ccc(C(=O)c4ccccc4)cc3)c2cc1OC`, the negative logarithm of the IC50 (pIC50) at EGFR (human) was 4.30.

Regarding `COc1cc2nccc(Oc3cccc(OC)c3OC)c2cc1OC`, on EGFR (human), the pIC50 was below 4.00.

In the case of `COc1cc2nccc(Oc3ccc(C(=O)c4ccc(C#N)cc4)cc3)c2cc1OC`, at EGFR (human), the negative logarithm of the IC50 (pIC50) is below 4.00. At EGFR (human), `COc1cc2nccc(Oc3ccc(C(C)=O)cc3)c2cc1OC` gave a negative-log IC50 (pIC50) below 4.00.

The compound `COc1cc2nccc(Oc3ccc(NC(=O)c4ccc(-c5ccccc5)cc4)cc3)c2cc1OC` showed a pIC50 against EGFR (human) below 4.00. On EGFR (human), `COc1ccc(C(=O)Nc2ccc(Oc3ccnc4cc(OC)c(OC)cc34)cc2)cc1OC` gave a pIC50 below 4.00.

`COc1cc2nccc(Oc3ccc(NC(=O)c4ccc(Br)cc4)cc3)c2cc1OC` had a negative logarithm of the IC50 (pIC50) against EGFR (human) of 4.32. Still for that read-out and setting: the value for `CCCCOc1ccc(C(=O)Nc2ccc(Oc3ccnc4cc(OC)c(OC)cc34)cc2)cc1` was below 4.00; that for `COC(=O)c1cccc(Oc2ccnc3cc(OC)c(OC)cc23)c1` was below 4.00. On the same count and under the same terms, the value for `CCCCc1ccc(C(=O)Nc2ccc(Oc3ccnc4cc(OC)c(OC)cc34)cc2)cc1` was below 4.00. On the same count and under the same terms, with `COc1cc2nccc(Oc3ccc(C(=O)c4cccs4)cc3)c2cc1OC` the figure was 4.80; with `COc1cccc(Oc2ccnc3cc(OC)c(OC)cc23)c1`, 4.74; with `COc1cc2nccc(Oc3ccc(C(=O)c4ccc(Cl)cc4)cc3)c2cc1OC`, below 4.00. Consider `COc1cc2nccc(Oc3cccc(F)c3)c2cc1OC`, for which the pIC50 on EGFR (human) is 4.62.

`COc1cc2nccc(Oc3ccc(C(=O)c4ccc([N+](=O)[O-])cc4)cc3)c2cc1OC`: at EGFR (human), the pIC50 was below 4.00. As for `COc1cc2nccc(Oc3ccccc3)c2cc1OC`, the negative-log IC50 (pIC50) on EGFR (human) is 4.30.

In the case of `COc1cc2nccc(Oc3ccc(C(=O)C4CCCCC4)cc3)c2cc1OC`, the negative-log IC50 (pIC50) at EGFR (human) was below 4.00. Still for that read-out and setting: the value for `COc1cc2nccc(Oc3ccc(NC(C)=O)cc3)c2cc1OC` was below 4.00; that for `COc1cc2nccc(Oc3cccc([N+](=O)[O-])c3)c2cc1OC` was 4.46. For the compound `COc1cc2nccc(Oc3cccc(O)c3)c2cc1OC`, the negative-log IC50 (pIC50) on EGFR (human) was 4.72. Still for that read-out and setting: with `COc1cc2nccc(Oc3ccc(NC(=O)c4cccs4)cc3)c2cc1OC` the figure was below 4.00; with `COc1cc2nccc(Oc3ccc(C(=O)c4ccc(-c5ccccc5)cc4)cc3)c2cc1OC`, below 4.00; with `COc1cc2nccc(Oc3ccc(C(=O)c4ccc(Br)cc4)cc3)c2cc1OC`, below 4.00. On the same count and under the same terms, with `COc1cc2nccc(Oc3ccc(C(=O)c4ccc(C(F)(F)F)cc4)cc3)c2cc1OC` the figure was below 4.00. On to `COc1cc2nccc(Oc3ccc(NC(=O)c4ccc(C(C)(C)C)cc4)cc3)c2cc1OC`, for which the negative-log IC50 (pIC50) against EGFR (human) and against EGFR was below 4.00 throughout. Take `COc1cc2nccc(Oc3cccc(C(C)=O)c3)c2cc1OC`: the pIC50 against EGFR (human) is below 4.00. On to `COc1cc2nccc(Oc3ccc(C(=O)c4ccc(C(C)(C)C)cc4)cc3)c2cc1OC`, for which the negative-log IC50 (pIC50) at EGFR (human) and on EGFR was below 4.00 in each case.

On EGFR (human), `COc1cc2nccc(Oc3ccc(NC(=O)C4CCCCC4)cc3)c2cc1OC` showed a negative-log IC50 (pIC50) below 4.00. The same measure, in the same setting: with `COc1cc2nccc(Oc3ccc(C(=O)c4ccc(I)cc4)cc3)c2cc1OC` the figure was below 4.00. The compound `COc1cc2nccc(Oc3c(OC)cccc3OC)c2cc1OC` gave a pIC50 at EGFR (human) of 4.09. The same measure, in the same setting: the value for `COc1cc2nccc(Oc3ccc(C(=O)c4ccc(F)cc4)cc3)c2cc1OC` was 4.12. For `COc1cc2nccc(Oc3cccc(C)c3)c2cc1OC`, the negative logarithm of the IC50 (pIC50) against EGFR (human) is 4.85. The same measure, in the same setting: the value for `COc1cc2nccc(Oc3ccc(C(=O)Nc4ccc(C(C)(C)C)cc4)cc3)c2cc1OC` was 4.52; that for `COc1cc2nccc(Oc3ccc(NC(=O)c4ccc([N+](=O)[O-])cc4)cc3)c2cc1OC` was below 4.00. With `COc1cc2nccc(Oc3ccc(O)cc3)c2cc1OC`, at EGFR (human), the pIC50 is 4.80.

In the case of `COc1cc2nccc(Oc3cccc(C(=O)c4ccccc4)c3)c2cc1OC`, the pIC50 on EGFR (human) is 4.05.
